Data as given in patent US20050070554A1, “Substituted heterocyclic compounds and methods of use” (Amgen Inc., priority 2003, published 2005).
pIC50: −log10 of the molar value. Where two headings read alike, the source gives them in different places.

Target: T1, LCK (Homo sapiens, UniProt P06239)
T1 construct: LCK KD GST (225-509); GST
Test: LCK-Homogeneous Time Resolved Fluorescent (HTRF) Kinase Assay
Type: biochemical
Method: LCK-Homogeneous Time Resolved Fluorescent (HTRF) Kinase Assay:
The LCK HTRF assay begins with LCK in the presence of ATP phosphorylating the biotinylated peptide Gastrin. The reaction incubates for 90 min. To quench the assay detection reagents are added which both stop the reaction by diluting out the enzyme and chelating the metals due to the presence of EDTA. Once the detection reagents are added the assay incubates for 30 min to allow for equilibration of the detection reagents.
Buffer conditions are as follows: 50 mM HEPES pH 7.5, 50 mM NaCl, 20 mM MgCl, 5 mM MnCl, 2 mM DTT, 0.05% BSA.
The assay is quenched and stopped with 160 μL of detection reagent. Detection reagents are as follows: Buffer made of 50 mM Tris, pH 7.5, 100 mM NaCl, 3 mM EDTA, 0.05% BSA, 0.1% Tween20.
The assay plate is read in either a Discovery or a RubyStar.

[1] = read-out: activity in the LCK-HTRF Kinase Assay

T1 sequence (P06239 225-509): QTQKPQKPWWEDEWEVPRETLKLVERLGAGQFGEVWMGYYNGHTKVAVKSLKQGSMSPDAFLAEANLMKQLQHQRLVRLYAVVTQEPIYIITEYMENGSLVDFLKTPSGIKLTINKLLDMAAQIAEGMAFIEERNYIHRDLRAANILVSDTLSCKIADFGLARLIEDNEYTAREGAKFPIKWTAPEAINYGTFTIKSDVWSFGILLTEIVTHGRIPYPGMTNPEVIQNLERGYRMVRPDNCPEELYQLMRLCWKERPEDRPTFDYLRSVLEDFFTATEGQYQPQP

pIC50 [1]	pIC50	SMILES
> 6.00		Cc1cc(N2CCN(C)CC2)ccc1Nc1ncc2c(=O)n(-c3c(C)cccc3C)c3nc4ccccc4n3c2n1 [No. 13, 6-(2,6-dimethylphenyl)-2-((2-methyl-4-(4-methyl-1-piperazinyl)phenyl)amino)pyrimido[5′,4′:5,6]-pyrimido[1,2-a]benzimidazol-5(6H)-one]
> 6.00		COc1cc(Nc2ncc3c(=O)n(-c4c(C)cccc4C)c4nc5ccccc5n4c3n2)cc(OCCN2CCN(C)CC2)c1OC [No. 11, 2-((3,4-bis(methyloxy)-5-((2-(4-methyl-1-piperazinyl)ethyl)oxy)phenyl)amino)-6-(2,6-dimethylphenyl)pyrimido[5′,4′:5,6]pyrimido[1,2-a]-benzimidazol-5(6H)-one]
> 6.00		Cc1cccc(C)c1-n1c(=O)c2cnc(Nc3ccc(OCCN4CCN(C(C)C)CC4)c(F)c3)nc2n2c3ccccc3nc12 [No. 61, 6-(2,6-dimethylphenyl)-2-((3-fluoro-4-((2-(4-(1-methylethyl)-1-piperazinyl)ethyl)oxy)phenyl)amino)-pyrimido[5′,4′:5,6]pyrimido[1,2-a]benzimidazol-5(6H)-one]
> 6.00		Cc1cccc(C)c1-n1c(=O)c2cnc(Nc3ccc(N4CCN(Cc5cccc(C#N)c5)CC4)cc3)nc2n2c3ccccc3nc12 [No. 53, 3-((4-(4-((6-(2,6-dimethylphenyl)-5-oxo-5,6-dihydropyrimido[5′,4′:5,6]pyrimido[1,2-a]-benzimidazol-2-yl)amino)phenyl)-1-piperazinyl)-methyl)benzonitrile]
> 6.00		CN1CCN(c2ccc(Nc3ncc4c(=O)n(-c5c(F)cccc5F)c5nc6ccccc6n5c4n3)cc2)CC1 [No. 88, 6-(2,6-difluorophenyl)-2-((4-(4-methyl-1-piperazinyl)-phenyl)amino)pyrimido[5′,4′:5,6]pyrimido[1,2-a]-benzimidazol-5(6H)-one]
> 6.00		Cc1cccc(C)c1-n1c(=O)c2cnc(Nc3ccc(N4CCN(CC5CCCCC5)CC4)cc3)nc2n2c3ccccc3nc12 [No. 42, 2-((4-(4-(cyclohexylmethyl)-1-piperazinyl)phenyl)-amino)-6-(2,6-dimethylphenyl)pyrimido[5′,4′:5,6]-pyrimido[1,2-a]benzimidazol-5(6H)-one]
> 6.00		CN1CCN(c2ccc(Nc3ncc4c(=O)n(-c5cccc(F)c5)c5nc6ccccc6n5c4n3)cc2)CC1 [No. 83, 6-(3-fluorophenyl)-2-((4-(4-methyl-1-piperazinyl)-phenyl)amino)pyrimido[5′,4′:5,6]pyrimido[1,2-a]-benzimidazol-5(6H)-one]
> 6.00		Cc1cccc(C)c1-n1c(=O)c2cnc(Nc3ccc(OCCNC(C)C)cc3)nc2n2c3ccccc3nc12 [No. 56, 6-(2,6-dimethylphenyl)-2-((4-((2-((1-methylethyl)-amino)ethyl)oxy)phenyl)amino)pyrimido[5′,4′:5,6]-pyrimido[1,2-a]benzimidazol-5(6H)-one]
	> 6.00	COc1cc(Nc2ncc3c(=O)n(-c4c(C)cccc4C)c4nc5ccccc5n4c3n2)ccc1N1CCN(C)CC1 [No. 19, 6-(2,6-dimethylphenyl)-2-((3-(methyloxy)-4-(4-methyl-1-piperazinyl)phenyl)amino)-pyrimido[5′,4′:5,6]pyrimido[1,2-a]benzimidazol-5(6H)-one]
	> 6.00	Cc1cccc(C)c1-n1c(=O)c2cnc(Nc3ccc(OCCCN4CCCCC4)cc3)nc2n2c3ccccc3nc12 [No. 32, 6-(2,6-dimethylphenyl)-2-((4-((3-(1-piperidinyl)-propyl)oxy)phenyl)amino)pyrimido[5′,4′:5,6]-pyrimido[1,2-a]benzimidazol-5(6H)-one]
	> 6.00	COc1cccc(-n2c(=O)c3cnc(Nc4ccc(N5CCN(C)CC5)cc4)nc3n3c4ccccc4nc23)c1 [No. 81, 6-(3-(methyloxy)phenyl)-2-((4-(4-methyl-1-piperazinyl)phenyl)amino)pyrimido[5′,4′:5,6]-pyrimido[1,2-a]benzimidazol-5(6H)-one]
> 6.00		CCN(CC)CCCOc1ccc(Nc2ncc3c(=O)n(-c4c(C)cccc4C)c4nc5ccccc5n4c3n2)cc1F [No. 6, 2-((4-((3-(diethylamino)propyl)oxy)-3-fluorophenyl)-amino)-6-(2,6-dimethylphenyl)pyrimido[5′,4′:5,6]-pyrimido[1,2-a]benzimidazol-5(6H)-one]
> 6.00		Cc1cccc(C)c1-n1c(=O)c2cnc(Nc3ccc(N4CCN(CCN(C)C)CC4)cc3)nc2n2c3ccccc3nc12 [No. 45, 2-((4-(4-(2-(dimethylamino)ethyl)-1-piperazinyl)-phenyl)amino)-6-(2,6-dimethylphenyl)-pyrimido[5′,4′:5,6]pyrimido[1,2-a]benzimidazol-5(6H)-one]
> 6.00		Cc1cccc(C)c1-n1c(=O)c2cnc(Nc3ccc(N4CCN(CC(N)=O)CC4)cc3)nc2n2c3ccccc3nc12 [No. 50, 2-(4-(4-((6-(2,6-dimethylphenyl)-5-oxo-5,6-dihydropyrimido[5′,4′:5,6]pyrimido[1,2-a]-benzimidazol-2-yl)amino)phenyl)-1-piperazinyl)-acetamide]
> 6.00		Cc1cccc(C)c1-n1c(=O)c2cnc(Nc3ccc(C(=O)NCCN(C)C)cc3)nc2n2c3ccccc3nc12 [No. 71, N-(2-(dimethylamino)ethyl)-4-((6-(2,6-dimethylphenyl)-5-oxo-5,6-dihydropyrimido[5′,4′:5,6]pyrimido[1,2-a]-benzimidazol-2-yl)amino)benzamide]
> 6.00		Cc1cccc(C)c1-n1c(=O)c2cnc(Nc3cccc(OCCCN4CCCCC4)c3)nc2n2c3ccccc3nc12 [No. 36, 6-(2,6-dimethylphenyl)-2-((3-((3-(1-piperidinyl)-propyl)oxy)phenyl)amino)pyrimido[5′,4′:5,6]-pyrimido[1,2-a]benzimidazol-5(6H)-one]
> 6.00		COc1cc(Nc2ncc3c(=O)n(-c4c(C)cccc4C)c4nc5ccccc5n4c3n2)cc(OC)c1OC [No. 18, 6-(2,6-dimethylphenyl)-2-((3,4,5-tris(methyloxy)-phenyl)amino)pyrimido[5′,4′:5,6]pyrimido[1,2-a]-benzimidazol-5(6H)-one]
> 6.00		COc1cccc(CN2CCN(c3ccc(Nc4ncc5c(=O)n(-c6c(C)cccc6C)c6nc7ccccc7n6c5n4)cc3)CC2)c1 [No. 52, 6-(2,6-dimethylphenyl)-2-((4-(4-((3-(methyloxy)-phenyl)methyl)-1-piperazinyl)phenyl)amino)-pyrimido[5′,4′:5,6]pyrimido[1,2-a]benzimidazol-5(6H)-one]
> 6.00		C[C@H](c1ccccc1)n1c(=O)c2cnc(Nc3ccc(N4CCN(C)CC4)cc3)nc2n2c3ccccc3nc12 [No. 68, 2-((4-(4-methyl-1-piperazinyl)phenyl)amino)-6-((1R)-1-phenylethyl)pyrimido[5′,4′:5,6]pyrimido[1,2-a]-benzimidazol-5(6H)-one]
> 6.00		Cc1cccc(C)c1-n1c(=O)c2cnc(Nc3ccc(N4CCCN(C)CC4)cc3)nc2n2c3ccccc3nc12 [No. 74, 6-(2,6-dimethylphenyl)-2-((4-(4-methyl-1,4-diazepan-1-yl)phenyl)amino)pyrimido[5′,4′:5,6]pyrimido[1,2-a]benzimidazol-5(6H)-one]
> 6.00		Cc1cc(OCCCN2CCCCC2)ccc1Nc1ncc2c(=O)n(-c3c(C)cccc3C)c3nc4ccccc4n3c2n1 [No. 15, 6-(2,6-dimethylphenyl)-2-((2-methyl-4-((3-(1-piperidinyl)propyl)oxy)phenyl)amino)-pyrimido[5′,4′:5,6]pyrimido[1,2-a]benzimidazol-5(6H)-one]
> 6.00		Cc1cccc(C)c1-n1c(=O)c2cnc(Nc3cccc(C(=O)NCCN(C)C)c3)nc2n2c3ccccc3nc12 [No. 65, N-(2-(dimethylamino)ethyl)-3-((6-(2,6-dimethylphenyl)-5-oxo-5,6-dihydropyrimido[5′,4′:5,6]pyrimido[1,2-a]-benzimidazol-2-yl)amino)benzamide]
> 6.00		Cc1cccc(C)c1-n1c(=O)c2cnc(Nc3ccc(OC[C@@H]4CCCN4)cc3)nc2n2c3ccccc3nc12 [No. 14, 6-(2,6-dimethylphenyl)-2-((4-(((2S)-2-pyrrolidinylmethyl)oxy)phenyl)amino)-pyrimido[5′,4′:5,6]pyrimido[1,2-a]benzimidazol-5(6H)-one]
> 6.00		COc1cc(Nc2ncc3c(=O)n(-c4c(C)cccc4C)c4nc5ccccc5n4c3n2)cc(OCCCN2CCN(C)CC2)c1OC [No. 21, 2-((3,4-bis(methyloxy)-5-((3-(4-methyl-1-piperazinyl)propyl)oxy)phenyl)amino)-6-(2,6-dimethylphenyl)pyrimido[5′,4′:5,6]pyrimido[1,2-a]-benzimidazol-5(6H)-one]
> 6.00		Cc1cccc(C)c1-n1c(=O)c2cnc(Nc3ccc(OC[C@@H]4CCCN4C)cc3)nc2n2c3ccccc3nc12 [No. 28, 6-(2,6-dimethylphenyl)-2-((4-((((2S)-1-methyl-2-pyrrolidinyl)methyl)oxy)phenyl)amino)-pyrimido[5′,4′:5,6]pyrimido[1,2-a]benzimidazol-5(6H)-one]
> 6.00		Cc1cccc(C)c1-n1c(=O)c2cnc(Nc3ccc(OCCN4CCN(C(C)C)CC4)c(Cl)c3)nc2n2c3ccccc3nc12 [No. 70, 2-((3-chloro-4-((2-(4-(1-methylethyl)-1-piperazinyl)-ethyl)oxy)phenyl)amino)-6-(2,6-dimethylphenyl)-pyrimido[5′,4′:5,6]pyrimido[1,2-a]benzimidazol-5(6H)-one]
	> 6.00	COc1cc(Nc2ncc3c(=O)n(-c4c(C)cccc4C)c4nc5ccccc5n4c3n2)cc(OC)c1OCCCN1CCN(C)CC1 [No. 9, 2-((3,5-bis(methyloxy)-4-((3-(4-methyl-1-piperazinyl)propyl)oxy)phenyl)amino)-6-(2,6-dimethylphenyl)pyrimido[5′,4′:5,6]pyrimido[1,2-a]-benzimidazol-5(6H)-one]
